Molecular target: T1, Human MTAP (Homo sapiens, UniProt Q13126)
T1 construct: six-histidine tag (His6) (N); made in house; host or cells: E. coli BL21 DE3
T1 sequence (Q13126 1-283): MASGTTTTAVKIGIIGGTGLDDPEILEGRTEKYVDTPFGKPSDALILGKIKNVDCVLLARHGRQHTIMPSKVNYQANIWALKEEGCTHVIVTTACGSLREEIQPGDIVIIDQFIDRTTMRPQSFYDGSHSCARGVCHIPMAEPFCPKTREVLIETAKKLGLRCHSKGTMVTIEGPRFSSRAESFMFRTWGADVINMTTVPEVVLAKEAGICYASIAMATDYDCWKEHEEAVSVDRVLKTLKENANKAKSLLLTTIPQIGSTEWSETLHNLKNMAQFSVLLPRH
Experiment: MTAP substrate assay, coupled spectrophotometric (adenine, xanthine oxidase)
Format: biochemical
Details: 2 nM MTAP; for activity at 50 µM: 10 min, read-out: MT-A—50: initial velocity as a percentage of the initial velocity with MTA as substrate; for activity at 50 µM / MT-A—50: initial velocity as a percentage of the initial velocity with MTA as substrate: compound 50 uM, relative to MTA at 50 uM; for MT-A—10: initial velocity as a percentage of the initial velocity with MTA as substrate: compound 10 uM, relative to MTA at 10 uM
Procedure: An enzymatic assay to determine the activity of MTAP against a given substrate was performed. Human MTAP containing an N-terminal six-histidine tag was expressed in E. coli BL21 DE3 cells. The protein was purified to homogeneity by Ni2+ affinity chromatography. Enzymatic activity was measured using a coupled spectrophotometric assay designed to monitor the reaction product adenine (Savarese, T. M., Crabtree, G. W., and Parks, R. E. Jr., (1980) Biochem. Pharmacol. 30, 189-199). Various concentrations of the indicated 5′-deoxymethylthio adenosine (MTA) or substrate were incubated in assay buffer (40 mM potassium phosphate buffer, 1 mM, and DTT 0.8 units/ml xanthine oxidase coupling enzyme) for 5 minutes at 37° C. The reaction was initiated by the addition of MTAP. The exact concentration of enzyme used varied for each substrate tested and ranged from 2 nM to 500 nM. Activity as a function of enzyme concentration was determined for each substrate tested to ensure that the appropriate enzyme concentration was used. Activity was detected by continuous monitoring of absorbance at 305 nm for 10 minutes (ΔE=15,500 M^−1).
Library compounds (10 and 50 uM) were tested using the assay described above with 2 nM MTAP enzyme. The resultant initial velocities are reported as a percentage of the initial velocity observed when MTA is the substrate. MTA controls, 10 and 50 uM concentrations, were run on each plate alongside the library compounds.

SMILES	activity at 50 µM [%]	MT-A—10: initial velocity as a percentage of the initial velocity with MTA as substrate [%]	MT-A—50: initial velocity as a percentage of the initial velocity with MTA as substrate [%]
Nc1ncnc2c1ncn2[C@@H]1O[C@H](CSc2ccccc2C2=NCCCN2)[C@@H](O)[C@H]1O [2(G)(1), (2R, 3R, 4S, 5S)-2-(6-amino-9H-purin-9-yl)-5-({[2-(1,4,5,6-tetrahydropyrimidin-2-yl)phenyl]thio}methyl)-tetrahydrofuran-3,4-diol]	23	8	–
Nc1ccccc1SC[C@H]1O[C@@H](n2cnc3c(N)ncnc32)[C@H](O)[C@@H]1O [2(G)(2), (2R, 3R, 4S, 5S)-2-(6-amino-9H-purin-9-yl)-5-{[(2-amino-phenyl)thio]methyl}tetrahydrofuran-3,4-diol]	5	3	–
Nc1nc(SC[C@H]2O[C@@H](n3cnc4c(N)ncnc43)[C@H](O)[C@@H]2O)c2[nH]cnc2n1 [2(G)(3), (2R, 3R, 4S, 5S)-2-(6-amino-9H-purin-9-yl)-5-{[(2-amino-7H-purin-6-yl)thio]methyl}tetrahydro-furan-3,4-diol]	45	46	–
CCc1cnc(SC[C@H]2O[C@@H](n3cnc4c(N)ncnc43)[C@H](O)[C@@H]2O)[nH]c1=O [2(G)(4), 2-({[(2S, 3S, 4R, 5R)-5-(6-amino-9H-purin-9-yl)-dihydroxytetrahydrofuran-2-yl]methyl}thio)-5-ethylpyrimidin-4(3H)-one]	49	38	–
Cn1nnnc1SC[C@H]1O[C@@H](n2cnc3c(N)ncnc32)[C@H](O)[C@@H]1O [2(G)(6), (2R, 3R, 4S, 5S)-2-(6-amino-9H-purin-9-yl)-5-{[(1-methyl-1H-tetrazol-5-yl)thio]methyl}tetra-hydrofuran-3,4-diol]	47	46	–
CCCSc1ccc2[nH]c(SC[C@H]3O[C@@H](n4cnc5c(N)ncnc54)[C@H](O)[C@@H]3O)nc2c1 [2(G)(7), (2R, 3R, 4S, 5S)-2-(6-amino-9H-purin-9-yl)-5-({[5-(propylthio)-1H-benzimidazol-2-yl]thio}methyl)tetrahydro-furan-3,4-diol]	0	3	–
Nc1ncnc2c1ncn2[C@@H]1O[C@H](CSc2ncccn2)[C@@H](O)[C@H]1O [2(G)(8), (2R, 3R, 4S, 5S)-2-(6-amino-9H-purin-9-yl)-5-[(pyrimidin-2-ylthio)methyl]tetrahydro-furan-3,4-diol]	59	54	–
Nc1nnc(SC[C@H]2O[C@@H](n3cnc4c(N)ncnc43)[C@H](O)[C@@H]2O)s1 [2(G)(9), (2R, 3R, 4S, 5S)-2-(6-amino-9H-purin-9-yl)-5-{[(5-amino-1,3,4-thiadiazol-2-yl)thio]methyl}tetrahydro-furan-3,4-diol]	47	34	–
Nc1ccc(SC[C@H]2O[C@@H](n3cnc4c(N)ncnc43)[C@H](O)[C@@H]2O)cc1 [2(G)(10), (2R, 3R, 4S, 5S)-2-(6-amino-9H-purin-9-yl)-5-{[(4-aminophenyl)thio]methyl]-tetrahydrofuran-3,4-diol]	19	20	–
Nc1ncnc2c1ncn2[C@@H]1O[C@H](CSc2nc3cc(Cl)ccc3s2)[C@@H](O)[C@H]1O [2(G)(11), (2R, 3R, 4S, 5S)-2-(6-amino-9H-purin-9-yl)-5-{[(5-chloro-1,3-benzothiazol-2-yl)thio]methyl}tetrahydro-furan-3,4-diol]	25	22	–
Nc1ncnc2c1ncn2[C@@H]1O[C@H](CSc2nc3ccccc3s2)[C@@H](O)[C@H]1O [2(G)(12), (2R, 3R, 4S, 5S)-2-(6-amino-9H-purin-9-yl)-5-[(1,3-benzothiazol-2-ylthio)methyl]tetrahydro-furan-3,4-diol]	25	24	–
CC(=O)Nc1ccc(SC[C@H]2O[C@@H](n3cnc4c(N)ncnc43)[C@H](O)[C@@H]2O)cc1 [2(G)(13), N-[4-({[(2S, 3S, 4R, 5R)-5-(6-amino-9H-purin-9-yl)-dihydroxytetrahydro-furan-2-yl]methyl}thio)phenyl]acetamide]	–	19	17
Nc1ncnc2c1ncn2[C@@H]1O[C@H](CSc2ccc(O)cc2)[C@@H](O)[C@H]1O [2(G)(14), (2R, 3R, 4S, 5S)-2-(6-amino-9H-purin-9-yl)-5-{[(4-hydroxyphenyl)-thio]-methyl}tetrahydrofuran-3,4-diol]	51	16	–
Nc1ncnc2c1ncn2[C@@H]1O[C@H](CSc2ccc3ccccc3c2)[C@@H](O)[C@H]1O [2(G)(15)]	–	29	25
COc1ccc(CSC[C@H]2O[C@@H](n3cnc4c(N)ncnc43)[C@H](O)[C@@H]2O)cc1 [2(G)(16), (2R, 3R, 4S, 5S)-2-(6-amino-9H-purin-9-yl)-5-{[(4-methoxybenzyl)-thio]methyl}tetrahydro-furan-3,4-diol]	60	59	–
Nc1ncnc2c1ncn2[C@@H]1O[C@H](CSc2ccc(Br)cc2)[C@@H](O)[C@H]1O [2(G)(17), (2R, 3R, 4S, 5S)-2-(6-amino-9H-purin-9-yl)-5-{[(4-bromophenyl)-thio]methyl}tetrahydro-furan-3,4-diol]	17	21	–
Nc1ncnc2c1ncn2[C@@H]1O[C@H](CSc2cccc3ccccc23)[C@@H](O)[C@H]1O [2(G)(18), (2R, 3R, 4S, 5S)-2-(6-amino-9H-purin-9-yl)-5-[(1-naphthylthio)methyl]tetrahydrofuran-3,4-diol]	4	5	–
Nc1ncnc2c1ncn2[C@@H]1O[C@H](CSc2ccc(Cl)cc2)[C@@H](O)[C@H]1O [2(G)(19), (2R, 3R, 4S, 5S)-2-(6-amino-9H-purin-9-yl)-5-{[(4-chlorophenyl)thio]-methyl}tetrahydro-furan-3,4-diol]	17	19	–
COC(=O)c1ccc(SC[C@H]2O[C@@H](n3cnc4c(N)ncnc43)[C@H](O)[C@@H]2O)cc1 [2(G)(20), methyl 4-({[(2S, 3S, 4R, 5R)-5-(6-amino-9H-purin-9-yl)-5-3,4-dihydroxytetrahydro-furan-2-yl]methyl}thio)benzoate]	5	7	–
CC(C)(C)c1ccc(SC[C@H]2O[C@@H](n3cnc4c(N)ncnc43)[C@H](O)[C@@H]2O)cc1 [2(G)(21), (2R, 3R, 4S, 5S)-2-(6-amino-9H-purin-9-yl)-5-{[(4-tert-butylphenyl)thio]methyl}tetrahydrofuran-3,4-diol]	9	12	–
Cc1cccc(C)c1SC[C@H]1O[C@@H](n2cnc3c(N)ncnc32)[C@H](O)[C@@H]1O [2(G)(22), (2R, 3R, 4S, 5S)-2-(6-amino-9H-purin-9-yl)-5-{[(2,6-dimethylphenyl)-thio]methyl}tetrahydro-furan-3,4-diol]	15	3	–
Nc1ncnc2c1ncn2[C@@H]1O[C@H](CSc2ccc(F)cc2)[C@@H](O)[C@H]1O [2(G)(23), (2R, 3R, 4S, 5S)-2-(6-amino-9H-purin-9-yl)-5-{[(4-fluorophenyl)-thio]methyl}tetra-hydrafuran-3,4-diol]	31	21	–
COc1ccc(OC)c(SC[C@H]2O[C@@H](n3cnc4c(N)ncnc43)[C@H](O)[C@@H]2O)c1 [2(G)(24), (2R, 3R, 4S, 5S)-2-(6-amino-9H-purin-9-yl)-5-{[(2,5-dimethoxy-phenyl)-thio]methyl}tetrahydrofuran-3,4-diol]	23	4	–
COc1ccc(SC[C@H]2O[C@@H](n3cnc4c(N)ncnc43)[C@H](O)[C@@H]2O)cc1OC [2(G)(25), (2R, 3R, 4S, 5S)-2-(6-amino-9H-purin-9-yl)-5-{[(3,4-dimethoxyphenyl)-thio]methyl}tetrahydro-furan-3,4-diol]	30	5	–

Source: patent publication US20040043959A1, “Combination therapies for treating methylthioadenosine phosphorylase deficient cells” (priority 2002, published 2004)
